# Measurements from patent publication US8318419B2, “Antiviral screening method to identify inhibitors of phosphatidylinositol 4,5-bisphosphate [PI(4,5)P2] binding to the HIV gag matrix (MA) protein” (priority 2007, dated 2012).
# Values joined by “and” are separate entries in the source; they are usually repeats but may differ in a detail not shown here. Equal values may be shown once.
# Target: T1, HIV-1 myrMA (Human immunodeficiency virus type 1 group M subtype B, UniProt P12493)
# Format: binding
# Parameters: mediated by the matrix (MA) domain of Gag, a 132-residue polypeptide containing an N-terminal myristyl group; made in house
# Conditions: not given
# Procedure: (§1) HIV-1 myrMA and myr(−)MA proteins were prepared as described (19, 37). Phosphoinositides PI(4,5)P2, di-C4-PI(4,5)P2, di-C8-PI(4,5)P2, di-C4-PI, di-C4-PI(3)P, di-C4-PI(4)P, di-C4-PI(5)P, di-C4-PI(3,5)P2, di-C8-PI(3,4,5)P2, and di-C4-PI (Echelon, Salt Lake City, Utah) and di-C4-phosphatidylcholine (Avanti Polar Lipids) were obtained commercially and used without further purification. Samples for all NMR experiments were prepared in 50 mM sodium phosphate at pH 5.5 and 5 mM DTT.
# (§2) NMR data [Bruker DRX (Billerica, Mass.); 800 MHz ^1H and DMX 600 MHz ^1H spectrometers equipped with cryoprobes] were obtained from a combination of 2D, 3D, and 4D NOESY data, for combinations of natural abundance; ^15N-, ^15N-, and ^13C-labeled protein samples (35° C.). Protein signals were assigned as described (19, 37). Phosphoinositide signals were assigned from 2D heteronuclear multiple-quantum coherence (HMQC), heteronuclear multiple bond correlation (HMBC), NOESY, total correlation spectroscopy (TOCSY), and COSY data (the ^1H and ^13C NMR signals of the 1′- and 2′-acyl chains were resolved in the 2D spectra), and intra- and intermolecular ^1H-^1H NOEs were assigned from 2D (^1H-^1H), 3D (^13C-, ^15N-, and ^13C-edited/^12C-double-half-filtered), and 4D ([…] and ^13C/^13C-edited) NOESY data (39, 40). Binding isotherms from ^1H-^15N NMR HSQC titration experiments were calculated with ORIGIN 7.0 software (Microcal Software, Northampton, Mass.).
row,Compound,"affinity for myr(−)MA relative to di-C4-PI(4,5)P2"
1,"CCCCCCCC(=O)OC[C@H](COP(=O)(O)O[C@@H]1[C@H](O)[C@H](O)[C@@H](OP(=O)(O)O)[C@H](OP(=O)(O)O)[C@H]1O)OC(=O)CCCCCCC [di-C8-PI(4,5)P2, di-octyl-PI(4,5)P2]",3 fold and > 3 fold

# Same assay, conditions: fit to 1:1 binding isotherms, read-out: dissociation constant (Kd)
row,Compound,Kd
1,"CCCCCCCC(=O)OC[C@H](COP(=O)(O)O[C@@H]1[C@H](O)[C@H](O)[C@@H](OP(=O)(O)O)[C@H](OP(=O)(O)O)[C@H]1O)OC(=O)CCCCCCC [di-C8-PI(4,5)P2, di-octyl-PI(4,5)P2]",83 ± 4 µM
2,"CCCC(=O)OC[C@H](COP(=O)(O)O[C@@H]1[C@H](O)[C@H](O)[C@@H](OP(=O)(O)O)[C@H](OP(=O)(O)O)[C@H]1O)OC(=O)CCC [di-C4-PI(4,5)P2, di-butyryl-PI(4,5)P2]",240 ± 60 µM

# Target: T1, HIV-1 myrMA
# Conditions: 1H-15N HSQC titration
# Procedure: as §1, §2
row,Compound,binding to myrMA (changes in NMR spectra upon titration)
1,"phosphatidylinositol (PI)4,5-bisphosphate [PI(4,5)P2]",binds directly
2,PI(5)P,do not bind MA with significant affinity
3,CCCC(=O)OCC(COP(=O)(O)OC1C(O)C(O)C(O)C(OP(=O)(O)O)C1O)OC(=O)CCC (stereo not drawn) [di-C4-PI(5)P],No detectable changes
4,"PI(3,5)P2",do not bind MA with significant affinity
5,CCCC(=O)OCC(COP(=O)(O)OC1C(O)C(O)C(OP(=O)(O)O)C(O)C1O)OC(=O)CCC (stereo not drawn) [di-C4-PI(4)P],No detectable changes
6,PI(4)P,do not bind MA with significant affinity
7,CCCC(=O)OC[C@H](COP(=O)(O)OC1[C@H](O)[C@H](O)C(O)[C@H](O)[C@H]1O)OC(=O)CCC (stereo partly drawn) [di-C4-PI],No detectable changes
8,CCCC(=O)OC[C@H](COP(=O)(O)O[C@@H]1[C@H](O)[C@H](OP(=O)(O)O)[C@@H](O)[C@H](O)[C@H]1O)OC(=O)CCC [di-C4-PI(3)P],No detectable changes
9,CCCC(=O)OC[C@H](COP(=O)([O-])OCC[N+](C)(C)C)OC(=O)CCC [di-C4-phosphatidylcholine],does not bind
10,"CCCC(=O)OCC(COP(=O)(O)OC1C(O)C(OP(=O)(O)O)C(O)C(OP(=O)(O)O)C1O)OC(=O)CCC (stereo not drawn) [di-C4-PI(3,5)P2]",does not bind
11,PI(3)P,do not bind MA with significant affinity

# Same assay, conditions: myrMA, NMR
row,Compound,triggering of myristate exposure
1,"phosphatidylinositol (PI)4,5-bisphosphate [PI(4,5)P2]",triggers myristate exposure
2,"PI(3,5)P2",do not bind MA with significant affinity or trigger myristate exposure
3,"CCCC(=O)OC[C@H](COP(=O)(O)O[C@H]1[C@H](O)[C@@H](OP(=O)(O)O)[C@H](OP(=O)(O)O)[C@@H](OP(=O)(O)O)[C@H]1O)OC(=O)CCC [di-C4-PI(3,4,5)P3]",triggers myristate exposure
4,PI(4)P,do not bind MA with significant affinity or trigger myristate exposure
5,"CCCC(=O)OCC(COP(=O)(O)OC1C(O)C(OP(=O)(O)O)C(O)C(OP(=O)(O)O)C1O)OC(=O)CCC (stereo not drawn) [di-C4-PI(3,5)P2]",does not bind myrMA or trigger myristate exposure
6,PI(3)P,do not bind MA with significant affinity or trigger myristate exposure
7,"CCCC(=O)OC[C@H](COP(=O)(O)O[C@@H]1[C@H](O)[C@H](O)[C@@H](OP(=O)(O)O)[C@H](OP(=O)(O)O)[C@H]1O)OC(=O)CCC [di-C4-PI(4,5)P2, di-butyryl-PI(4,5)P2]",causes extrusion of the myristyl group

# Same assay, conditions: myrMA, upon addition of the lipid
row,Compound,chemical-shift changes ΔδHN of group 1 residues
1,"CCCC(=O)OC[C@H](COP(=O)(O)O[C@@H]1[C@H](O)[C@H](O)[C@@H](OP(=O)(O)O)[C@H](OP(=O)(O)O)[C@H]1O)OC(=O)CCC [di-C4-PI(4,5)P2, di-butyryl-PI(4,5)P2]",0.1-0.8 ppm

# Same assay, conditions: read-out: dissociation constant (Kd); myrMA; fit to 1:1 binding isotherms; 35° C., pH 5.5
row,Compound,Kd
1,"CCCC(=O)OC[C@H](COP(=O)(O)O[C@H]1[C@H](O)[C@@H](OP(=O)(O)O)[C@H](OP(=O)(O)O)[C@@H](OP(=O)(O)O)[C@H]1O)OC(=O)CCC [di-C4-PI(3,4,5)P3]",81 ± 18 µM
2,"CCCC(=O)OC[C@H](COP(=O)(O)O[C@@H]1[C@H](O)[C@H](O)[C@@H](OP(=O)(O)O)[C@H](OP(=O)(O)O)[C@H]1O)OC(=O)CCC [di-C4-PI(4,5)P2, di-butyryl-PI(4,5)P2]",150 ± 30 µM
